Measured values published in PubChem BioAssay (NCI).
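All cell lines were grown in 96-well plates and treated with compound for 48 hours. TGI: total growth inhibition.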

What was measured:
Assay in all cases: NCI-60 cell line screen, 48 h
786-0 renal = tested on: 786-0 renal
A498 renal = tested on: A498 renal
A549 NSCLC = tested on: A549 NSCLC
ACHN renal = tested on: ACHN renal
BT-549 breast = tested on: BT-549 breast
CAKI-1 renal = tested on: CAKI-1 renal
CCRF-CEM leukemia = tested on: CCRF-CEM leukemia
COLO 205 colon = tested on: COLO 205 colon
DU-145 prostate = tested on: DU-145 prostate
EKVX NSCLC = tested on: EKVX NSCLC
HCC-2998 colon = tested on: HCC-2998 colon
HCT-116 colon = tested on: HCT-116 colon
HCT-15 colon = tested on: HCT-15 colon
HL-60(TB) leukemia = tested on: HL-60(TB) leukemia
HOP-62 NSCLC = tested on: HOP-62 NSCLC
HOP-92 NSCLC = tested on: HOP-92 NSCLC
HS 578T breast = tested on: HS 578T breast
HT29 colon = tested on: HT29 colon
IGROV1 ovarian = tested on: IGROV1 ovarian
K-562 leukemia = tested on: K-562 leukemia
KM12 colon = tested on: KM12 colon
M14 melanoma = tested on: M14 melanoma
MALME-3M melanoma = tested on: MALME-3M melanoma
MCF7 breast = tested on: MCF7 breast
MDA-MB-435 = tested on: MDA-MB-435
MDA-N = tested on: MDA-N
MOLT-4 leukemia = tested on: MOLT-4 leukemia
NCI-H226 lung = tested on: NCI-H226 lung
NCI-H460 lung = tested on: NCI-H460 lung
NCI-H522 lung = tested on: NCI-H522 lung
NCI/ADR-RES ovarian = tested on: NCI/ADR-RES ovarian
OVCAR-3 ovarian = tested on: OVCAR-3 ovarian
OVCAR-4 ovarian = tested on: OVCAR-4 ovarian
OVCAR-5 ovarian = tested on: OVCAR-5 ovarian
OVCAR-8 ovarian = tested on: OVCAR-8 ovarian
PC-3 prostate = tested on: PC-3 prostate
RXF 393 renal = tested on: RXF 393 renal
SF-268 CNS = tested on: SF-268 CNS
SF-295 CNS = tested on: SF-295 CNS
SF-539 CNS = tested on: SF-539 CNS
SK-MEL-2 melanoma = tested on: SK-MEL-2 melanoma
SK-MEL-28 melanoma = tested on: SK-MEL-28 melanoma
SK-MEL-5 melanoma = tested on: SK-MEL-5 melanoma
SK-OV-3 ovarian = tested on: SK-OV-3 ovarian
SN12C renal = tested on: SN12C renal
SNB-19 CNS = tested on: SNB-19 CNS
SNB-75 CNS = tested on: SNB-75 CNS
SR leukemia = tested on: SR leukemia
SW-620 colon = tested on: SW-620 colon
T-47D breast = tested on: T-47D breast
TK-10 renal = tested on: TK-10 renal
U251 CNS = tested on: U251 CNS
UACC-257 melanoma = tested on: UACC-257 melanoma
UACC-62 melanoma = tested on: UACC-62 melanoma
UO-31 renal = tested on: UO-31 renal
LOX IMVI melanoma = tested on: LOX IMVI melanoma
MDA-MB-231 breast = tested on: MDA-MB-231 breast

Measured: TGI

Cc1ccccc1C(O)(c1nccn1C)c1nccn1C
not listed: LOX IMVI melanoma | MDA-MB-231 breast
> 100 µM: all other assays above

CSc1cc(Cl)c(C)cc1S(=O)(=O)NC(=O)NNc1ccc(Cl)cc1
not listed: BT-549 breast | CCRF-CEM leukemia | HL-60(TB) leukemia | HOP-92 NSCLC | TK-10 renal | UACC-257 melanoma | UACC-62 melanoma | UO-31 renal
> 100 µM: all other assays above
